From patent US20240218084A1, “METHOD FOR PURIFYING FOMES OFFICINALIS POLYSACCHARIDE BY SEQUENTIAL SIMULATED MOVING CHROMATOGRAPHY” (HEILONGJIANG BAYI AGRICULTURAL UNIVERSITY, priority 2022, published 2024)

Test system: Macrophage RAW264.7
Assay: NO production by macrophage RAW264.7 stimulated with polysaccharide (Griess reagent)
Type: cell-based
Details: RAW264.7 cells, positive control 1 μg/mL lipopolysaccharide (LPS), 24 h incubation, supernatant, 540 nm
Procedure: Macrophage RAW264.7 is stimulated using Fomes officinalis polysaccharides prepared in Embodiments 1-3, and the concentrations of NO produced therefrom are determined, and the results are shown in Table 1. Specific experimental methods: 100 microliters (L) of RAW264.7 cells (1×10^6 cells/mL) are added to 96 microtiter plates and pre-cultured in a 37° C. 5% CO2 incubator for 24 hours (h). The supernatant is discarded, and 200 μL of 5 micrograms per milliliter (μg/mL) polysaccharide solution is added to the cells, the culture solution is used as a negative control, and 1 μg/mL lipopolysaccharide (LPS) is used as a positive control, then the cells are incubated for 24 h. To determine the NO level in the supernatant, 100 μL of supernatant is added with 100 μL of Griess reagent, and the absorbance is measured at 540 nm after 10 min of reaction at room temperature and protected from light using an enzyme labeler (Biotek instruments, Winooski, VT, USA), and the NO yield is calculated by substituting the absorbance value of the samples into the standard curve, using sodium nitrite as the standard.

## lipopolysaccharide [Positive control group]
  NO yield: 41.06 µmol/L
